Patent US20100298280A1, “Compounds for the Modulation of Huntingtin Aggregation, Methods and Means for Identifying Such Compounds” (priority 2007, published 2010)
“Also recorded” adds a separate entry of the source.

Experiments:
[1] = molecular target: T1, mutant huntingtin aggregates (HDex1Q68 fused to ECFP/EYFP) (Homo sapiens, UniProt P42858, INS38QQQQQQQQQQQQQQQQQQQQQQQQQQQQQQQQQQQQQQQQQQQQQQQ); assay: Cellular FRET aggregation assay in stable Tet-off CHO-AA8/Q68-Q68 cells; format: cell-based; details: 48 h, 2% DMSO
Experimental: To determine the potential of possibly inhibiting substances the inventors performed dose response assays at concentrations ranging from 1, to 100 μM.
Screening was performed in 96-well plates (greiner bio-one) containing 1×10^4 cells/well of the stably inducible tet off cell lines htt-mut (six-fold) and CHO-AA8 line (three fold) for background control. Simultaneously, each compound was checked for its potential autofluorescence.
Two stable inducible CHO Tet off cell lines were constructed expressing simultaneously wildtype (CHO-AA8/Q17-Q17) or mutant (CHO-AA8/Q68-Q68) huntingtin fragments fused to ECFP or EYFP (FIG. 1B) after withdrawal of doxicycline (dox). Basal and induced expression levels of huntingtin fusion proteins were examined by Western blot analysis at different time intervals (4, 24, 48, and 72 hours). […] For the screening approach stable inducible huntingtin expressing cell lines were seeded in 96-well plates and the fluorescence intensities were measured with a fluorescence plate reader.
The test compounds were mixed in a fresh doxicycline-free medium with 2% DMSO and added to the Tet off cell lines two to three hours after seeding and attachment of the cells.
(§1) The FRET-measurement was performed 48 h later.
Subsequently, a second screening round was performed at concentration range 1, 3, and 10 μM, respectively.

[2] = system: CHO-AA8/Q68-Q68 cells; assay: Propidium iodide exclusion assay (viability, cell number) following the FRET assay
Experimental: CHO-AA8/Q68-Q68, CHO-AA8/Q17-Q17 and CHO-AA8 cells were seeded in 96 well plates. After attachment of the cells, the medium was exchanged for Ham's F 12 medium containing 10% doxicycline free FBS and 2% DMSO supplemented with compounds. After 48 h the fluorescence intensities of cells were measured using a fluorescence plate reader (Fluoroscan Ascent, Thermo Scietific) and filtersets for CFP (ex 444 nm, em 485 nm), YFP(ex 485 nm, em 538 nm) and FRET (ex 444 nm, em 538 nm). After correction of background fluorescence (subtraction of CHO-AA8 cell fluorescence intensities) the FRET signal was determined using the method: FA=(FRET-a*YFP)/CFP with a=0.11 (Zal u. Gascoigne 2004, Zal et al. 2002). In following, the viability of cells was measured using a propidium iodide exclusion assay (Sattler et al. 1997). PI was added to the cells at final concentration of 0.15 mg/ml. After 15 minutes the PI fluorescence intensity was measured (ex 530 nm, em 620 nm). The cells were then lysed with 0.5% Triton X-100 (TX100) and the PI fluorescence intensity was measured again. Viability of cells was calculated as viability=1−(PIbefore TX100/PIafter TX100).
as §1

[3] = system: proteasome (chymotrypsin activity); assay: Proteasome activity, hydrolysis of Suc-LLVY-AMC in CHO-AA8/Tet-Off cells; format: cell-based; details: 24 h
Experimental: The concentration-dependent effect of khayanthone, 17-AAG, Gedunin, and Lactacystin on proteasome activity was tested using a non-recombinant CHO Tet-Off cell line. Cells were incubated with the given compounds for 24 h. Subsequently, proteasome activities were measured by a fluoroscan according to the degradation rate of a fluorogenic substrate (Suc-LLVY-AMC). In correlation to DMSO treated controls khayanthone led to an increase of proteasome activity about 40-50% in CHO-AA8/Tet-Off cells.
To confirm this we examined the chymotrypsin activity of the proteasome under the influence of khayanthone and compared data with known substances influencing the proteasomes' activity (gedunin, lactacystin, 17-AAG) (FIG. 4). Adminstration of the selected substances was performed for 24 h, and subsequently chymotrypsin activity of the UPS was determined by measuring the hydrolysis of a fluorogenic reporter (Suc-LLVY-AMC, Biomol).

[4] = system: HSP40; assay: Western blot of heat shock protein expression in SH-SY5Y cells; format: cell-based; details: SH-SY5Y cell line, increasing concentration
Experimental: (§2) Utilizing Western-blot analysis concentration-dependent effects of khayanthone on protein expression of HSP40, HSP70, and HSP90 were detected. Immuno detection was performed using HSP specific monoclonal antibodies, respectively.
(§3) We examined effects of khayanthone on the expression of heat shock proteins, preferentially HSP40, HSP70 and HSP90, because of their impacts in neurodegenerative disease and cancer. Heat shock protein expression was determined in neuronal cells (SH-SY5Y cell line) by western blot analysis.

[5] = system: HSP70; assay: as above; format: cell-based; details: SH-SY5Y cell line, increasing concentration
Experimental: as §2, §3

[6] = system: HSP90; assay: as above; format: cell-based; details: SH-SY5Y cell line, increasing concentration
Experimental: as §2, §3

[7] = system: flies expressing Htt-Exon-1Q93 in all neurons; assay: Climbing assay in a Drosophila model of HD; format: in vivo
Experimental: (A) Expression of the htt proteins in transgenic flies is driven by the bipartite expression system upstream activator sequence (UAS)-GAL4 (yeast transcriptional activator). Stocks w; P(w^+mC; w+; elav−GAL4/CyO) and w; P(w+mC=UAS-Q93httexon1) were crossed in order to obtain flies expressing mutant htt fragments in all neurons.
(B, C) Flies expressing Htt-Exon-1Q93 were fed with khayanthone (100 μM, 250 μM) or DMSO supplemented food. Effects of khayanthone on flies' motor ability were measured with the climbing assay. For this purpose flies were placed in a vial, then the height half of them were able to climb from the bottom within 60 sec was determined. In addition the time was measured which half of them needed to climb up 6 cm. […] Each curve represents a population of ˜40 flies. Error bars represent the SD of 5 repeats on each measuring point.
Flies were mated at 25° C. in vials containing standard food supplemented with different concentrations of the compound tested. Adults were transferred to vials containing fresh food supplemented with different concentrations of khayanthone (100 μM, 250 μM, and DMSO control) every 3 days after eclosion.
Effects of khayanthone on the flies' motor ability were measured with the climbing assay. For this purpose flies were placed in a vial, then the height, which half of them were able to climb from the bottom within 60 sec, was determined. In addition, the time was measured which half of them needed to climb up 6 cm. The assays were repeated five times on each population sample.

[8] = molecular target: T1, mutant huntingtin aggregates (HDex1Q68 fused to ECFP/EYFP); assay: Cellular FRET aggregation assay in stable Tet-off CHO-AA8/Q68-Q68 cells; format: cell-based
[9] = after day 18, food with 100 μM, 250 μM

T1 sequence (P42858 1-88, stated change not applied): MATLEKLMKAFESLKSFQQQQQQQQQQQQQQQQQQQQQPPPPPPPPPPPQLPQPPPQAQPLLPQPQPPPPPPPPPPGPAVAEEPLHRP

CC(=O)O[C@H]1C[C@@H](OC(C)=O)C(C)(C)C2C[C@@H](OC(C)=O)[C@]3(C)C(CC[C@@]4(C)[C@H]([C@H]5CCOC5)C(=O)[C@H]5O[C@]543)[C@]21C (stereo partly shown) [S1, khayanthone]
FRET-signal (effect in words) [1]: decreases | Cell number (effect in words) [2]: unaffected | highest chymotrypsin activity ([3]; 1 μM): about 40% | chymotrypsin activities (decline with increasing concentrations) ([3]; 3, 10 μM): ~10% | increase of proteasome activity ([3]; CHO-AA8/Tet-Off cells, in correlation to DMSO treated controls): 40-50% | HSP40 protein expression [4]: decreased expression; also recorded: slight decrease | HSP70 protein expression [5]: decreased expression; also recorded: slight decrease | HSP90 protein expression [6]: decreased expression; also recorded: slight decrease | climbing distance in 60 sec (height half of the flies climb) [7, 9]: ~50 % of the initial distance | time half of the flies need for a 6 cm distance [7, 9]: 2.3 times of the initial time | difference in climbing between treated and untreated flies ([7]; until day 18): no detectable difference | motor ability / mobility compared to DMSO treated flies (in words) ([7]; with increasing age, food with 100 μM, 250 μM): improves significantly motor deficits; also recorded: maintain an improved mobility | Number of mutant huntingtin aggregates (fluorescence microscopy images) [8]: decrease with increasing compound concentration
